In test [1] the test system is S. aureus MSSA-7 producing penicillinase PC-1. In words: Broth microdilution MIC assay, S. aureus PC-1. The test is classed as cell-based. For orientation: Broth dilution looks for growth in wells or tubes with falling amounts of substance.
In another test the target is T1, SHV-5 β-lactamase (Klebsiella pneumoniae, UniProt P0A3M1).
T1 construct: made in house; host or cells: E. coli BL21(DE3)
In words: β-Lactamase inhibition enzyme assay, SHV-5. The test is classed as biochemical. The gist of the method: (§1)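 Native untagged β-lactamases from E. coli BL21(DE3) were purified and preincubated with inhibitor 15 min at 37° C. Hydrolysis was then followed as initial rates: 100 μM nitrocefin at 486 nm for p99 AmpC and OXA-1, imipenem at 300 nm for KPC-2, cefotaxime at 260 nm for SHV-5. IC50 = 50% reduction versus no-inhibitor controls.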

The target in another test is T2, KPC-2 β-lactamase (Klebsiella pneumoniae, UniProt Q9F663).
T2 construct: made in house; host or cells: E. coli BL21(DE3)
The experiment in a line: β-Lactamase inhibition enzyme assay, KPC-2. The test is classed as biochemical. The gist of the method: as §1

For test [2], the target named is T3, VIM-2 metallo β-lactamase (Pseudomonas aeruginosa, UniProt Q9K2N0).
T3 construct: made in house; host or cells: E. coli BL21(DE3)
The experiment in a line: β-Lactamase inhibition enzyme assay, VIM-2. As to conditions: Nitrocefin 100 μM as substrate, 486 nm; 15 min at 37° C. with enzyme, PBS pH 7.4; read-out: Class B VIM-2 IC50. Type of test: biochemical. The gist of the method:
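Purified untagged VIM-2, expressed in E. coli BL21(DE3), preincubated with inhibitor 15 min at 37 °C. Nitrocefin added at 100 μM final, and absorbance at 486 nm monitored for 10 min. IC50 taken as inhibitor concentration halving initial hydrolysis rate relative to uninhibited controls.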

A further test addresses T4, p99 AmpC β-lactamase (Enterobacter cloacae, UniProt P05364).
T4 construct: made in house; host or cells: E. coli BL21(DE3)
The experiment in a line: β-Lactamase inhibition enzyme assay, p99 AmpC. The test is classed as biochemical. The gist of the method: as §1

The next test has as its target T5, OXA-1 β-lactamase (Escherichia coli, UniProt P13661).
T5 construct: made in house; host or cells: E. coli BL21(DE3)
In words: β-Lactamase inhibition enzyme assay, OXA-1. Type of test: biochemical. The gist of the method:
as §1

The mark [3] stands for this setting: imipenem as substrate, 300 nm, 15 min at 37° C. with enzyme, PBS pH 7.4, read-out: Class A KPC-2 IC50.
Where [4] appears, read: Nitrocefin 100 μM as substrate, 486 nm, 15 min at 37° C. with enzyme, PBS pH 7.4, read-out: Class D OXA-1 IC50.

Molecules are shown by their SMILES. Read-outs that look alike come from different tables or passages of the source.

T1 sequence (P0A3M1 22-286): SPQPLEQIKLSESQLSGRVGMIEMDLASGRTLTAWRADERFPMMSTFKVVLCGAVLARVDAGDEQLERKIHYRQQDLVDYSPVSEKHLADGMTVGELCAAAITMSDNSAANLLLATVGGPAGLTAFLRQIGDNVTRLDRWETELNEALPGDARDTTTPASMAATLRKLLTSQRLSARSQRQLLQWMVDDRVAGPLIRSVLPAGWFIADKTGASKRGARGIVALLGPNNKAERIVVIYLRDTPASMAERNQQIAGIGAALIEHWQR
T2 sequence (Q9F663 25-293, looked up): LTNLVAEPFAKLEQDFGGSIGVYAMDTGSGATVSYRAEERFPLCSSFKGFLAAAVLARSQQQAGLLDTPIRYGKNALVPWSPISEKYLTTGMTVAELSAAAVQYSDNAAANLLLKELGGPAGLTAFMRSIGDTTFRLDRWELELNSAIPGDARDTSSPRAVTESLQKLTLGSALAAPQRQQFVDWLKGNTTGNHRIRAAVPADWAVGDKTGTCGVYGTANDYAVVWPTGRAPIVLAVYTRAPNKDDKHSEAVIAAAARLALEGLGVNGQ
T4 sequence (P05364 21-381): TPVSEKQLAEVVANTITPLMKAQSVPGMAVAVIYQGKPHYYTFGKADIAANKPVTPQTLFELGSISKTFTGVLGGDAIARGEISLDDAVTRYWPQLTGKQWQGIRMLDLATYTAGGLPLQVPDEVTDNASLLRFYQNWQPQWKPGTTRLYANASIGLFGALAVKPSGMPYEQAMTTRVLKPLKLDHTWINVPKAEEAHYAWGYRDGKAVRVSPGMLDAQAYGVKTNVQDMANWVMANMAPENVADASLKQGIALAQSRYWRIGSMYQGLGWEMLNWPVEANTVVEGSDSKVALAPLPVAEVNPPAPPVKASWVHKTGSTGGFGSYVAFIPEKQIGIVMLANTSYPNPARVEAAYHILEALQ
T5 sequence (P13661 26-276): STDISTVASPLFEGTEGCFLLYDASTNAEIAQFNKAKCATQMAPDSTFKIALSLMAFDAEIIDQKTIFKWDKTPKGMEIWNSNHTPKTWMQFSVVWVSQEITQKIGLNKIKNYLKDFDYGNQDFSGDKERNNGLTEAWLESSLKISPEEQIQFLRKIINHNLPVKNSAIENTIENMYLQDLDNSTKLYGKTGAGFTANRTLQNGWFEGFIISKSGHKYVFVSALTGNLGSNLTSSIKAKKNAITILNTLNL

With `CCN1CCN(C(=O)N[C@@H](C(=O)N[C@@H]2C(=O)N3[C@@H]2SC(C)(C)[C@@H]3C(=O)O)c2ccccc2)C(=O)C1=O` [Piperacillin, reference compound], the “MIC alone of partner antibiotic” value in test [1] (antibiotic alone, S. aureus producing penicillinase PC-1) stood at 64 µg/mL.
For orientation: IC50 means the concentration that gives 50% inhibition. Turning to `O=C(O)c1cccc2c1OB(O)[C@@H](NC(=O)C1(c3ccccc3)CCNCC1)C2` [Example 3, (R)-2-hydroxy-3-(4-phenylpiperidine-4-carboxamido)-3,4-dihydro-2H-benzo[e][1,2]oxaborinine-8-carboxylic acid], the IC50 at SHV-5 β-lactamase was 10000 to 100000 nM; at KPC-2 β-lactamase, less than 100 nM; in test [2] it was 1000 to 10000 nM; against p99 AmpC β-lactamase, less than 100 nM; on OXA-1 β-lactamase, 100 to 1000 nM. Also, the “MIC of Exemplary Compounds in presence of fixed β-lactams: Fixed Pip, S. aureus MSSA-7 PC-1” value in test [1] (fixed piperacillin 4 μg/mL, CAMHB, 16-20 hours at 37° C.) is “A (A represents an MIC of the fixed β-lactam antibiotic in the presence of >32 μg/mL of a β-lactamase inhibitor of exemplary compounds)”.
In the case of `NCc1ccc(C(=O)N[C@H]2Cc3cccc(C(=O)O)c3OB2O)cc1CN` [Example 14, (R)-3-(3,4-bis(aminomethyl)benzamido)-2-hydroxy-3,4-dihydro-2H-benzo[e][1,2]oxaborinine-8-carboxylic acid], the IC50 on SHV-5 β-lactamase is 100 to 1000 nM; at KPC-2 β-lactamase (setting [3]), 100 to 1000 nM; in test [2] it was less than 100 nM; against p99 AmpC β-lactamase it was less than 100 nM; on OXA-1 β-lactamase (setting [4]), less than 100 nM.
Turning to `O=C(N[C@H]1Cc2cccc(C(=O)O)c2OB1O)c1ccc2c(c1)CN(Cc1cccnc1)C2` [Example 12, (R)-2-hydroxy-3-(2-(pyridin-3-ylmethyl)isoindoline-5-carboxamido)-3,4-dihydro-2H-benzo[e][1,2]oxaborinine-8-carboxylic acid], the IC50 at SHV-5 β-lactamase is less than 100 nM; at KPC-2 β-lactamase (setting [3]) it was less than 100 nM; in test [2] it was 100 to 1000 nM; at p99 AmpC β-lactamase, less than 100 nM; at OXA-1 β-lactamase (setting [4]) it was less than 100 nM.
For `O=C(N[C@H]1Cc2cccc(C(=O)O)c2OB1O)c1ccc(O)c(O)c1` [Example 39, (R)-3-(3,4-dihydroxybenzamido)-2-hydroxy-3,4-dihydro-2H-benzo[e][1,2]oxaborinine-8-carboxylic acid], the IC50 on SHV-5 β-lactamase was 100 to 1000 nM; on KPC-2 β-lactamase (setting [3]), less than 100 nM; in test [2] it was 100 to 1000 nM; against p99 AmpC β-lactamase, less than 100 nM; on OXA-1 β-lactamase (setting [4]) it was less than 100 nM.
In the case of `NCc1cc(C(=O)N[C@H]2Cc3cccc(C(=O)O)c3OB2O)cnc1CN` [Example 62, (R)-3-(5,6-bis(aminomethyl)nicotinamido)-2-hydroxy-3,4-dihydro-2H-benzo[e][1,2]oxaborinine-8-carboxylic acid], the 50% inhibitory concentration (IC50) against SHV-5 β-lactamase was less than 100 nM; on KPC-2 β-lactamase (setting [3]), less than 100 nM; in test [2] it was 100 to 1000 nM; on p99 AmpC β-lactamase it was less than 100 nM; at OXA-1 β-lactamase (setting [4]), less than 100 nM.
As for `O=C(N[C@H]1Cc2cccc(C(=O)O)c2OB1O)c1ccc2c(c1)CCNC2` [Example 5, (R)-3-(2-borono-2-(1,2,3,4-tetrahydroisoquinoline-6-carboxamido)ethyl)-2-hydroxybenzoic acid], the IC50 on SHV-5 β-lactamase was less than 100 nM; on KPC-2 β-lactamase (setting [3]), less than 100 nM; in test [2], 100 to 1000 nM; against p99 AmpC β-lactamase, less than 100 nM; on OXA-1 β-lactamase (setting [4]), less than 100 nM.
Consider `N=C(N)N1Cc2ccc(CC(=O)N[C@H]3Cc4cccc(C(=O)O)c4OB3O)cc2C1` [Example 37, (3R)-3-[[2-(2-carbamimidoylisoindolin-5-yl)acetyl]amino]-2-hydroxy-3,4-dihydro-1,2-benzoxaborinine-8-carboxylic acid], for which the IC50 against SHV-5 β-lactamase was less than 100 nM; on KPC-2 β-lactamase (setting [3]), less than 100 nM; in test [2], 100 to 1000 nM; on p99 AmpC β-lactamase it was less than 100 nM; at OXA-1 β-lactamase (setting [4]) it was less than 100 nM.
With `CN1CCc2cc(C(=O)N[C@H]3Cc4cccc(C(=O)O)c4OB3O)ccc2C1` [Example 7, (R)-2-hydroxy-3-(2-methyl-1,2,3,4-tetrahydroisoquinoline-6-carboxamido)-3,4-dihydro-2H-benzo[e][1,2]oxaborinine-8-carboxylic acid], the IC50 against SHV-5 β-lactamase is less than 100 nM; at KPC-2 β-lactamase (setting [3]), less than 100 nM; in test [2], 100 to 1000 nM; against p99 AmpC β-lactamase, less than 100 nM; at OXA-1 β-lactamase (setting [4]), 100 to 1000 nM.
With `NCCN1Cc2ccc(C(=O)N[C@H]3Cc4cccc(C(=O)O)c4OB3O)cc2C1` [Example 11, (R)-3-(2-(2-aminoethyl)isoindoline-5-carboxamido)-2-hydroxy-3,4-dihydro-2H-benzo[e][1,2]oxaborinine-8-carboxylic acid], the IC50 is less than 100 nM against SHV-5 β-lactamase; less than 100 nM at KPC-2 β-lactamase (setting [3]); 100 to 1000 nM in test [2]; less than 100 nM at p99 AmpC β-lactamase; less than 100 nM at OXA-1 β-lactamase (setting [4]).
As for `CNCc1ccc(C(=O)N[C@H]2Cc3cccc(C(=O)O)c3OB2O)cc1CNC` [Example 19, (R)-3-(3,4-bis((methylamino)methyl)benzamido)-2-hydroxy-3,4-dihydro-2H-benzo[e][1,2]oxaborinine-8-carboxylic acid], the IC50 (against SHV-5 β-lactamase; at KPC-2 β-lactamase (setting [3]); in test [2]; against p99 AmpC β-lactamase; on OXA-1 β-lactamase (setting [4])) was less than 100 nM each time.
As to `NC1=Nc2cc(C(=O)N[C@H]3Cc4cccc(C(=O)O)c4OB3O)ccc2CN1` [Example 15, (R)-3-(2-amino-3,4-dihydroquinazoline-7-carboxamido)-2-hydroxy-3,4-dihydro-2H-benzo[e][1,2]oxaborinine-8-carboxylic acid], the 50% inhibitory concentration (IC50) on SHV-5 β-lactamase was less than 100 nM; at KPC-2 β-lactamase (setting [3]), 100 to 1000 nM; in test [2], 1000 to 10000 nM; at p99 AmpC β-lactamase, less than 100 nM; on OXA-1 β-lactamase (setting [4]), 100 to 1000 nM.
Take `O=C(N[C@H]1Cc2cccc(C(=O)O)c2OB1O)c1ccc2ncccc2c1` [Example 28, (R)-2-hydroxy-3-(quinoline-6-carboxamido)-3,4-dihydro-2H-benzo[e][1,2]oxaborinine-8-carboxylic acid]: the half-maximal inhibitory concentration (IC50) against SHV-5 β-lactamase is less than 100 nM; at KPC-2 β-lactamase (setting [3]), less than 100 nM; in test [2] it was 1000 to 10000 nM; at p99 AmpC β-lactamase, less than 100 nM; at OXA-1 β-lactamase (setting [4]), less than 100 nM.
As to `NCCOc1ccc(C(=O)N[C@H]2Cc3cccc(C(=O)O)c3OB2O)cc1O` [Example 40, (R)-3-(4-(2-aminoethoxy)-3-hydroxybenzamido)-2-hydroxy-3,4-dihydro-2H-benzo[e][1,2]oxaborinine-8-carboxylic acid], the concentration for half-maximal inhibition (IC50) against SHV-5 β-lactamase is 100 to 1000 nM; at KPC-2 β-lactamase (setting [3]), less than 100 nM; in test [2] it was less than 100 nM; on p99 AmpC β-lactamase, less than 100 nM; on OXA-1 β-lactamase (setting [4]) it was less than 100 nM.
Consider `O=C(N[C@H]1Cc2cccc(C(=O)O)c2OB1O)c1ccc2c(c1)CNC2` [Example 9, (R)-2-hydroxy-3-(isoindoline-5-carboxamido)-3,4-dihydro-2H-benzo[e][1,2]oxaborinine-8-carboxylic acid], for which the half-maximal inhibitory concentration (IC50) (against SHV-5 β-lactamase; at KPC-2 β-lactamase (setting [3]); in test [2]; on p99 AmpC β-lactamase; on OXA-1 β-lactamase (setting [4])) was less than 100 nM in each case.
For the molecule `O=C(O)c1cccc2c1OB(O)[C@@H](NC(=O)c1cccc3[nH]ccc13)C2` [Example 32, (R)-2-Hydroxy-3-[(1H-indole-4-carbonyl)-amino]-3,4-dihydro-2H-benzo[e][1,2]oxaborinine-8-carboxylic acid], the IC50 is less than 100 nM against SHV-5 β-lactamase; less than 100 nM on KPC-2 β-lactamase (setting [3]); 100 to 1000 nM in test [2]; less than 100 nM at p99 AmpC β-lactamase; less than 100 nM on OXA-1 β-lactamase (setting [4]).

These data come from patent publication US9376454B2, “Beta-lactamase inhibitors” (priority 2013, dated 2016).
